Measured values: US20240376085A1 (Janssen Pharmaceutica NV, priority 2021, published 2024)

Experiments:
IL-17A : IL-17RA binding = target: T1, IL-17A : IL-17RA binding (Homo sapiens, UniProt Q16552, K93Q); experiment: IL-17A(FLAG-tagged):IL-17RA(His-tagged) binding disruption Eu-HTRF assay, Protocol 1; conditions: FLAG-IL-17A 2.5 nM at 2x final concentration; average if tested more than once
T1 construct: Name: IL-17A-Flag
In short: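 IC50 came from a one-site competition fit of the acceptor/donor (665/620 nm) HTRF ratio. His-tagged IL-17RA, Eu-anti-FLAG and D2-anti-His were added after a 1 h rt compound preincubation with FLAG-tagged IL-17A dimer in PBS/0.01% Triton X-100, followed by 2 h at rt before reading.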

[1] = tested on: IL-17A-induced G-CSF production in human normal keratinocyte (NHK); experiment: NHK assay: IL-17A-induced G-CSF production in normal human keratinocytes; assay type: cell-based; conditions: Homo sapiens, Keratinocyte, 24 h, IL-17A 5 ng/mL, average if tested more than once
In short: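 IC50 derives from G-CSF in supernatants, quantified by HTRF from a standard curve, with CellTiter-Glo viability compared to DMSO control. Before a 24 h, 37°C culture of normal human keratinocytes at 3000–4000 cells/well, compound dilutions were preincubated 1 h at rt with human IL-17A (5 ng/mL final), with 0.2% DMSO and 5% FBS.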

T1 sequence (Q16552 with tags, fused parts or gaps K93Q): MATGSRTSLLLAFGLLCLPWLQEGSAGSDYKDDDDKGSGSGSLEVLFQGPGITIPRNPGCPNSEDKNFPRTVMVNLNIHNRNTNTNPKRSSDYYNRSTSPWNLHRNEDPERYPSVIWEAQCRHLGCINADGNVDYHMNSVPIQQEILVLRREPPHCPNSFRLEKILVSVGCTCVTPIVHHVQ

Row | Compound | IC50 (IL-17A : IL-17RA binding) [nM] | IC50 [1] [nM]
1 | COCCn1nncc1C(=O)N[C@H](c1nc2cc([C@@H](C)NC(=O)CCC(F)(F)F)ccc2[nH]1)C1CCC(F)(F)CC1 [Example 15, N—[(S)-(4,4-Difluorocyclohexyl)-[6-[(1R)-1-(4,4,4-trifluorobutanoylamino)ethyl]-1H-benzimidazol-2-yl]methyl]-3-(2-methoxyethyl)triazole-4-carboxamide] | > 100 | > 100
2 | COCCn1cc(C(=O)N[C@H](c2nc3cc([C@@H](C)NC(=O)CCC(F)(F)F)ccc3[nH]2)C2CCC(F)(F)CC2)nn1 [Example 16, N—[(S)-(4,4-Difluorocyclohexyl)-[6-[(1R)-1-(4,4,4-trifluorobutanoylamino)ethyl]-1H-benzimidazol-2-yl]methyl]-1-(2-methoxyethyl)triazole-4-carboxamide] | > 100 | > 100
3 | Cc1c(C(=O)N[C@H](c2nc3cc([C@@H](C)NC(=O)CCC(F)(F)F)ccc3[nH]2)C2CCC(F)(F)CC2)cnn1CCC#N [Example 17, 1-(2-Cyanoethyl)-N—[(S)-(4,4-difluorocyclohexyl)-[6-[(1R)-1-(4,4,4-trifluorobutanoylamino)ethyl]-1H-benzimidazol-2-yl]methyl]-5-methyl-pyrazole-4-carboxamide] | > 100 | > 100
4 | Cc1c(C(=O)N[C@H](c2nc3cc([C@@H](C)NC(=O)CCC(F)(F)F)ccc3[nH]2)C2CCC(F)(F)CC2)cnn1CC(F)(F)F [Example 18, N—[(S)-(4,4-Difluorocyclohexyl)-[6-[(1R)-1-(4,4,4-trifluorobutanoylamino)ethyl]-1H-benzimidazol-2-yl]methyl]-5-methyl-1-(2,2,2-trifluoroethyl)pyrazole-4-carboxamide] | > 100 | > 100

Continued, in another order:

Row | IC50 (IL-17A : IL-17RA binding) [nM] | Compound | IC50 [1] [nM]
5 | > 100 | C[C@@H](NC(=O)CCC(F)(F)F)c1ccc2[nH]c([C@@H](NC(=O)c3cnn(CCCC(F)(F)F)n3)C3CCC(F)(F)CC3)nc2c1 [Example 19, N—[(S)-(4,4-Difluorocyclohexyl)-[6-[(1R)-1-(4,4,4-trifluorobutanoylamino)ethyl]-1H-benzimidazol-2-yl]methyl]-2-(4,4,4-trifluorobutyl)triazole-4-carboxamide] | 50 to 100
6 | > 100 | C[C@@H](NC(=O)CCC(F)(F)F)c1ccc2[nH]c([C@@H](NC(=O)c3cnnn3CCCC(F)(F)F)C3CCC(F)(F)CC3)nc2c1 [Example 20, N—[(S)-(4,4-Difluorocyclohexyl)-[6-[(1R)-1-(4,4,4-trifluorobutanoylamino)ethyl]-1H-benzimidazol-2-yl]methyl]-3-(4,4,4-trifluorobutyl)triazole-4-carboxamide] | 50 to 100
7 | > 100 | C[C@@H](NC(=O)CCC(F)(F)F)c1ccc2[nH]c([C@@H](NC(=O)c3cn(CCCC(F)(F)F)nn3)C3CCC(F)(F)CC3)nc2c1 [Example 21, N—[(S)-(4,4-Difluorocyclohexyl)-[6-[(1R)-1-(4,4,4-trifluorobutanoylamino)ethyl]-1H-benzimidazol-2-yl]methyl]-1-(4,4,4-trifluorobutyl)triazole-4-carboxamide] | > 100
8 | > 100 | C[C@@H](NC(=O)CCC(F)(F)F)c1ccc2[nH]c([C@@H](NC(=O)c3cnn(CC(F)(F)F)n3)C3CCC(F)(F)CC3)nc2c1 [Example 22, N—[(S)-(4,4-Difluorocyclohexyl)-[6-[(1R)-1-(4,4,4-trifluorobutanoylamino)ethyl]-1H-benzimidazol-2-yl]methyl]-2-(2,2,2-trifluoroethyl)triazole-4-carboxamide] | > 100
9 | > 100 | C[C@@H](NC(=O)CCC(F)(F)F)c1ccc2[nH]c([C@@H](NC(=O)c3cnnn3CC(F)(F)F)C3CCC(F)(F)CC3)nc2c1 [Example 23, N—[(S)-(4,4-Difluorocyclohexyl)-[6-[(1R)-1-(4,4,4-trifluorobutanoylamino)ethyl]-1H-benzimidazol-2-yl]methyl]-3-(2,2,2-trifluoroethyl)triazole-4-carboxamide] | > 100
